Paper PMC12752627, “Discovery of a Potent and Selective TEAD Degrader with Durable Degradation Activity” (Advanced Science, 2025)

How the values were obtained:
[1] = tested on: 867 cancer cell lines; test: PRISM assay (barcoded cell line screening, 5 days); assay type: cell-based; design: KG-FP-003-AUC: scale not given here;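 note: top test concentration 10 mM in eight-point dilution series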
Procedure: The principle of the PRISM assay has been described elsewhere and was conducted as previously outlined by the PRISM team at the Broad Institute.^[ [14], [31] ^] In PRISM (MTS027) experiments, KG‐FP‐003 was tested across 867 different cancer cell lines. Cells were treated with eight concentration gradients, ranging from 4.6 nM to […], in triplicate dilutions over a period of five days. Each plate was treated with 20 µM bortezomib as a positive control and DMSO as a negative control. Three replicate experiments were performed for each compound. The resulting data were analyzed using GraphPad PRISM 9.5.

[2] = target: T1, CRBN (Homo sapiens, UniProt Q96SW2); test: Intracellular CRBN binding in NanoLuc-CRBN-overexpressing HEK293T cells; assay type: cell-based; details: read-out: Cellular CRBN Binding IC50 (nM ± SD)
T1 construct: expressed in transfected cells; host or cells: HEK293T
Procedure: NanoLuc‐CRBN‐overexpressing HEK293T were seeded in 96‐well plates at a density of 2000 per well. The following day, compounds was added to the plate starting from 10 µM for a 3‐fold gradient dilution and incubated for 2 h. […] Finally, the signal was measured using an Envision plate reader (Revvity) and the data were analyzed using the GraphPad Prism 9.5 software.

[3] = tested on: CTGF, ANKRD1, NPPB, PTX3 expression; test: RT-qPCR in A172 cells incl. washout; assay type: cell-based; details: 6 h treatment, 18 h
Procedure: Cells were seeded in 6‐well plates at a density of 1 million cells per well. The following day, different concentrations of compounds were added, and cells were collected after 24 h. For wash‐out experiments, cells were pre‐treated with compounds at indicated concentrations for 6 h, then cells were washed three times with PBS, and an equal volume of complete medium without compounds was added and incubated for another 18 h.
RNA was isolated and purified from the samples using the EZ‐10 Rotary Column Total RNA Isolation Kit (Sangon Biotech, B615012). After measuring the RNA concentration, 200 ng of purified RNA was used for genomic DNA removal and reverse transcription to cDNA with the HiScript III 1st Strand cDNA Synthesis Kit (+DNA wiper) (Vazyme, R312‐02). The resulting cDNA was then prepared into a reaction mix according to the ChamQ SYBR qPCR Mix (Vazyme, #q711‐02). Real‐time PCR analysis was performed using a QuantStudio 6 Pro real‐time PCR system (Thermo Fisher Scientific). Relative gene expression was calculated using the 2‐∆∆CT method.

[4] = tested on: MSTO-211H xenograft; test: MSTO-211H xenograft efficacy study; assay type: in vivo, BALB/c nude mice; details: for Tumor growth inhibition (TGI) rate: MSTO-211H xenograft
Procedure: Animal experiments were conducted by Medsyin (Shanghai) Co., Ltd. The experimental protocol was approved by the IACUC of the company (No.: PZWH‐2025031003) and strictly adhered to the guidelines of the AAALAC. The specific procedures are as follows: 5 × 10^6 MSTO‐211H cells or ES2 cells were suspended in 100 µL of a mixture of PBS and Matrigel and inoculated subcutaneously into the right axilla of 6‐week‐old BALB/c nude mice. Drug administration was initiated on day 7 after cell inoculation (when the average tumor volume was ≈150 mm^3). The experiment was divided into four groups with 6 mice in each group. The specific grouping and administration methods are as follows: control group, KY‐001 group (10 mg kg^−1, p.o.), KG‐FP‐003 (10 mg kg^−1 or 30 mg kg^−1, i.p.). The administration routes included intraperitoneal injection and intragastric administration, once a day for 21 consecutive days. During the experiment, the body weight and tumor volume of the mice were measured twice a week. At the end of the experiment, the mice were sacrificed and tumor tissues were collected.

T1 sequence (Q96SW2 whole entry): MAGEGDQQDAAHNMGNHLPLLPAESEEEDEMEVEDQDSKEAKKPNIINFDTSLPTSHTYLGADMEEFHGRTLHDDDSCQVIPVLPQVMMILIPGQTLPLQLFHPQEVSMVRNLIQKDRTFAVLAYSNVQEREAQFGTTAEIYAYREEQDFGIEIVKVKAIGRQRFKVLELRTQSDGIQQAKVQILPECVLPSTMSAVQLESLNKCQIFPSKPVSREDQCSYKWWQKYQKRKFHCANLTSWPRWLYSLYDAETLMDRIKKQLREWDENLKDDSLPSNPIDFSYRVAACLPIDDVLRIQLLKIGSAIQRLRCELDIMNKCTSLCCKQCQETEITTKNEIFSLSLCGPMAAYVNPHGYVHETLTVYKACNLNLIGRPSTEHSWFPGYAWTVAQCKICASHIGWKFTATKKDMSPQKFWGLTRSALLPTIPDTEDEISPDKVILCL

CNC(=O)c1cc2c(c(F)c1-c1c(Cl)c(F)cc3c1C[C@@](CN[C@H]1CC[C@H](C(=O)N4CCC(CC5CCN(C(=O)COc6ccc(N7CCC(=O)NC7=O)c(C)c6)CC5)CC4)CC1)(c1ccccc1)O3)[C@@H](O)[C@@H](C)C2 [KG-FP-003]
KG-FP-003-AUC ([1]; DAOY_CENTRAL_NERVOUS_SYSTEM ACH-000211 PR300): 0.93
KG-FP-003-AUC ([1]; DAOY_CENTRAL_NERVOUS_SYSTEM ACH-000211 PR500): 0.92
KG-FP-003-AUC ([1]; DBTRG05MG_CENTRAL_NERVOUS_SYSTEM ACH-000863 PR500): 0.64
KG-FP-003-AUC ([1]; DEL_HAEMATOPOIETIC_AND_LYMPHOID_TISSUE ACH-000233 PR300): 0.87
KG-FP-003-AUC ([1]; DETROIT562_UPPER_AERODIGESTIVE_TRACT ACH-000207 PR500): 0.81
KG-FP-003-AUC ([1]; DKMG_CENTRAL_NERVOUS_SYSTEM ACH-000244 PR500): 0.85
KG-FP-003-AUC ([1]; DL_SOFT_TISSUE ACH-001059 PR300): 0.70
KG-FP-003-AUC ([1]; DMS53_LUNG ACH-000698 PR300): 1.00
KG-FP-003-AUC ([1]; DMS273_LUNG ACH-000749 PR500): 0.99
KG-FP-003-AUC ([1]; DND41_HAEMATOPOIETIC_AND_LYMPHOID_TISSUE ACH-000981 PR300): 0.75
KG-FP-003-AUC ([1]; DOHH2_HAEMATOPOIETIC_AND_LYMPHOID_TISSUE ACH-000056 PR300): 0.76
KG-FP-003-AUC ([1]; DOTC24510_CERVIX ACH-001341 PR300): 0.78
KG-FP-003-AUC ([1]; DU145_PROSTATE ACH-000979 PR500): 0.93
KG-FP-003-AUC ([1]; DU4475_BREAST ACH-000258 PR300): 0.97
KG-FP-003-AUC ([1]; DV90_LUNG ACH-000925 PR500): 1.00
KG-FP-003-AUC ([1]; EB1_HAEMATOPOIETIC_AND_LYMPHOID_TISSUE ACH-000877 PR300): 0.99
KG-FP-003-AUC ([1]; EBC1_LUNG ACH-000563 PR500): 0.77
KG-FP-003-AUC ([1]; ECC2_BILIARY_TRACT ACH-001997 PR300): 0.76
KG-FP-003-AUC ([1]; ECGI10_OESOPHAGUS ACH-000305 PR500): 0.96
KG-FP-003-AUC ([1]; EFE184_ENDOMETRIUM ACH-000435 PR300): 0.72
KG-FP-003-AUC ([1]; EFM19_BREAST ACH-000330 PR300): 0.99
KG-FP-003-AUC ([1]; EFM192A_BREAST ACH-000117 PR500): 0.99
KG-FP-003-AUC ([1]; EFO21_OVARY ACH-000308 PR500): 0.71
KG-FP-003-AUC ([1]; EFO27_OVARY ACH-000936 PR500): 0.77
KG-FP-003-AUC ([1]; EGI1_BILIARY_TRACT ACH-001494 PR300): 0.88
KG-FP-003-AUC ([1]; EKVX_LUNG ACH-000706 PR300): 0.71
KG-FP-003-AUC ([1]; EM2_HAEMATOPOIETIC_AND_LYMPHOID_TISSUE ACH-000295 PR300): 0.94
KG-FP-003-AUC ([1]; EMTOKA_ENDOMETRIUM ACH-001495 PR300): 0.83
KG-FP-003-AUC ([1]; EOL1_HAEMATOPOIETIC_AND_LYMPHOID_TISSUE ACH-000198 PR300): 0.69
KG-FP-003-AUC ([1]; ES2_OVARY ACH-000906 PR500): 0.62
KG-FP-003-AUC ([1]; ESS1_ENDOMETRIUM ACH-000913 PR500): 0.56
KG-FP-003-AUC ([1]; EW8_BONE ACH-000499 PR300): 0.98
KG-FP-003-AUC ([1]; EWS502_BONE ACH-000279 PR300): 0.99
KG-FP-003-AUC ([1]; EWS502_BONE ACH-000279 PR500): 0.99
KG-FP-003-AUC ([1]; FADU_UPPER_AERODIGESTIVE_TRACT ACH-000846 PR500): 0.92
KG-FP-003-AUC ([1]; FLO1_OESOPHAGUS ACH-001500 PR300): 0.75
KG-FP-003-AUC ([1]; FTC133_THYROID ACH-000903 PR500): 0.99
KG-FP-003-AUC ([1]; FTC238_THYROID ACH-000897 PR500): 0.91
KG-FP-003-AUC ([1]; G292CLONEA141B1_BONE ACH-000082 PR300): 0.64
KG-FP-003-AUC ([1]; G292CLONEA141B1_BONE ACH-000082 PR500): 0.53
KG-FP-003-AUC ([1]; G361_SKIN ACH-000572 PR500): 1.00
KG-FP-003-AUC ([1]; G402_SOFT_TISSUE ACH-000375 PR300): 0.43
KG-FP-003-AUC ([1]; G402_SOFT_TISSUE ACH-000375 PR500): 0.69
KG-FP-003-AUC ([1]; G415_BILIARY_TRACT ACH-001850 PR300): 0.65
KG-FP-003-AUC ([1]; GAMG_CENTRAL_NERVOUS_SYSTEM ACH-000098 PR500): 0.45
KG-FP-003-AUC ([1]; GB2_BILIARY_TRACT ACH-001961 PR300): 0.92
KG-FP-003-AUC ([1]; GCIY_STOMACH ACH-000047 PR500): 0.98
KG-FP-003-AUC ([1]; GCT27_TESTIS ACH-001502 PR300): 0.73
KG-FP-003-AUC ([1]; GCT_SOFT_TISSUE ACH-000835 PR500): 0.53
KG-FP-003-AUC ([1]; GI1_CENTRAL_NERVOUS_SYSTEM ACH-000756 PR500): 0.74
IC50 [2]: 962 ± 86 nM
Repression of TEAD target genes after washout (qPCR) [3]: sustained and pronounced repression
Tumor growth inhibition (TGI) rate ([4]; 10 mg/kg i.p. q.d. 21 days): 118%
Tumor growth inhibition (TGI) rate ([4]; 30 mg/kg i.p. q.d. 21 days): 129%
Body weight during treatment ([4]; 10 or 30 mg/kg i.p., 21 days, MSTO-211H xenograft mice): stable body weights
